In patent US20250339569A1, “CARBONIC ANHYDRASE IX LIGANDS” (priority 2021, published 2025):
Starred links: 1 amine or outer side, 2 acyl side, 3 side chain; linkers in the order of their positions; H or OH if unused. Positions of bridges follow the written chain, without caps; N, C: chain ends. Non-standard residues stand in square brackets, D forms with d. Residues, ends and D or L forms follow the SMILES beside them. *: point of attachment. NH(CH2)3NH(O2Oc(DOTA)) = O=C(O)CN1CCN(CC(=O)O)CCN(CC(=O)NCCOCCOCC(=O)NCCCN*)CCN(CC(=O)O)CC1; Phe(3-NHCO(CH2)3SO2NH2) = N[C@@H](Cc1cccc(NC(=O)CCCS(N)(=O)=O)c1)C(=O)O; DOTA = O=C(O)CN1CCN(CC(=O)O)CCN(CC(=O)*)CCN(CC(=O)O)CC1; Phe(4-NH2) = Nc1ccc(C[C@H](N)C(=O)O)cc1; 1Nal = N[C@@H](Cc1cccc2ccccc12)C(=O)O; mXylylene = c1cc(C[*:1])cc(C[*:2])c1; Bta = N[C@@H](Cc1csc2ccccc12)C(=O)O; X2 = O=C(CN1CCC(N[*:1])CC1)[*:2]; X1 = O=C(CN1CCN([*:1])CC1)[*:2]; X58 = CS(=O)(=O)c1ccc(CN*)cc1; Pen = CC(C)(S)[C@H](N)C(=O)O; Tle = CC(C)(C)[C@H](N)C(=O)O; 3Amb = NCc1cccc(C(=O)O)c1; Isovaleryl = CC(C)CC(=O)*; X67 = CS(=O)(=O)CC(=O)*; Aib = CC(C)(N)C(=O)O; Bz = O=C(c1ccccc1)*; Bn = c1ccc(C*)cc1; Sar = CNCC(=O)O

Biological target: T1, CAIX-expressing human HT-29 colorectal cancer cells (Homo sapiens, UniProt Q16790)
T1 construct: CAIX-expressing human HT-29 colorectal cancer cells; host or cells: HT-29 human colorectal cancer cells
Experiment: FACS binding assay (IC50 determination, competition with tracer 3BP-2776 or 3BP-4149)
Settings: not given
Procedure, shortened: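 HT-29 cells in FACS buffer (PBS, 1% FCS) at 500.000 cells/ml were exposed to compounds competing with a labelled tracer, with biotinylated compounds detected by 1 μg/mL APC-streptavidin for 30 min on ice. APC/Cy5 median fluorescence was read by flow cytometry and IC50 derived by 4PL fit.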

Row | Structure (SMILES) | IC50 [nM]
1 | CC(C)C[C@@H]1NC(=O)[C@H](Cc2ccc(OCc3ccccc3)cc2)NC(=O)[C@H](CC(=O)O)NC(=O)[C@H]2CCCN2C(=O)[C@H](CCC(=O)O)NC(=O)[C@@H](NC(=O)[C@H](Cc2ccc(O)cc2)NC(=O)[C@@H](NC(=O)CN2CCC(NC(=O)CN3CCN(CC(=O)O)CCN(CC(=O)O)CCN(CC(=O)O)CC3)CC2)C(C)C)CSCc2cccc(c2)CSC[C@@H](C(N)=O)NC(=O)[C@H](CO)NC(=O)[C@H](Cc2c[nH]c3ccccc23)NC(=O)[C@H]([C@@H](C)O)NC1=O [3BP-4137] ({DOTA}-[X2]VYCE[dP]DY(Bn)LTWSC-NH2; linker 4-13 via mXylylene) | 10 to 79.4
2 | CC(C)C[C@@H]1NC(=O)[C@H](Cc2c[nH]c3ccccc23)NC(=O)[C@H](CC(=O)O)NC(=O)CNC(=O)[C@H](CCC(=O)O)NC(=O)[C@@H](NC(=O)[C@H](Cc2ccc(O)cc2)NC(=O)[C@@H](NC(=O)c2ccccc2)C(C)C)CSCc2cccc(c2)CSC[C@@H](C(N)=O)NC(=O)[C@H](CCC(N)=O)NC(=O)[C@H](Cc2c[nH]c3ccccc23)NC(=O)[C@H]([C@@H](C)O)NC1=O [3BP-3108] (Bz-VYCEGDWLTWQC-NH2; linker 3-12 via mXylylene) | < 10

Same assay, conditions: FACS binding assay, HT-29 cells, competition with tracer 3BP-2776 (10 nM, biotin-labeled), 4° C., 1 hour; read-out: pIC50 category (activity) (converted)

Row | IC50 [nM] | Structure (SMILES)
3 | < 10 | CC(C)C[C@@H]1NC(=O)[C@H](Cc2cccc(NC(=O)CCCS(N)(=O)=O)c2)NC(=O)[C@H](CC(=O)O)NC(=O)[C@H]2CCCN2C(=O)[C@H](CCC(=O)O)NC(=O)[C@@H](NC(=O)[C@H](CCCNC(=N)N)NC(=O)CN2CCN(C(=O)CN3CCN(CC(=O)O)CCN(CC(=O)O)CCN(CC(=O)O)CC3)CC2)CSCc2cccc(c2)CSC[C@@H](C(N)=O)NC(=O)[C@H](CO)NC(=O)[C@H](Cc2c[nH]c3ccccc23)NC(=O)[C@H]([C@@H](C)O)NC1=O [3BP-4451] ({DOTA}-[X1]RCE[dP]D[Phe(3-NHCO(CH2)3SO2NH2)]LTWSC-NH2; linker 3-12 via mXylylene)
4 | 10 to 79.4 | CC(C)C[C@@H]1NC(=O)[C@H](Cc2c[nH]c3ccccc23)NC(=O)[C@H](CO)NC(=O)[C@H]2CCCCNC(=O)CC[C@H](NC1=O)C(=O)N[C@@H](Cc1c[nH]c3ccccc13)C(=O)N[C@@H](CO)C(=O)N[C@H](C(N)=O)CSCc1cccc(c1)CSC[C@H](NC(=O)[C@H](Cc1ccc(O)cc1)NC(=O)[C@@H](NC(=O)CN1CCC(NC(=O)CN3CCN(CC(=O)O)CCN(CC(=O)O)CCN(CC(=O)O)CC3)CC1)C(C)C)C(=O)N[C@@H](CCC(=O)O)C(=O)N2 [3BP-4115] ({DOTA}-[X2]VYCE[dK]SWLEWSC-NH2; linker 4-13 via mXylylene; lactam 6-10)
5 | 100 to 794 | CC(=O)N[C@H](C(=O)N[C@@H](Cc1ccc(O)cc1)C(=O)N[C@H]1CSCc2cccc(c2)CSC[C@@H](C(N)=O)NC(=O)[C@H](CO)NC(=O)[C@H](Cc2c[nH]c3ccccc23)NC(=O)[C@H]2CC(=O)NCCCC[C@H](NC(=O)[C@H]3CCCN3C(=O)[C@H](CCC(=O)O)NC1=O)C(=O)N[C@@H](Cc1c[nH]c3ccccc13)C(=O)N[C@@H](CC(C)C)C(=O)N2)C(C)C [3BP-4043] (Ac-VYCE[dP]KWL[dD]WSC-NH2; linker 3-12 via mXylylene; lactam 6-9)

Same assay, conditions: FACS binding assay, HT-29 cells, competition with tracer 3BP-4149 (3 nM, Cy5-labeled), 4° C., 1 hour; read-out: pIC50 category (activity) (converted)

Row | IC50 [nM] | Structure (SMILES)
6 | 100 to 794 | CC(C)C[C@@H]1NC(=O)[C@H](Cc2ccc(NC(=O)CS(C)(=O)=O)cc2)NC(=O)[C@H](CC(=O)O)NC(=O)[C@H]2CCCN2C(=O)[C@H](CCC(=O)O)NC(=O)[C@@H](NC(=O)[C@H](Cc2ccc(O)cc2)NC(=O)[C@@H](NC(=O)CN2CCC(NC(=O)CN3CCN(CC(=O)O)CCN(CC(=O)O)CCN(CC(=O)O)CC3)CC2)C(C)C)CSCc2cccc(c2)CSC[C@@H](C(N)=O)NC(=O)[C@H](CO)NC(=O)[C@H](Cc2c[nH]c3ccccc23)NC(=O)[C@H]([C@@H](C)O)NC1=O [3BP-4360] ({DOTA}-[X2]VYCE[dP]D[Phe(4-NH2)](X67)LTWSC-NH2; linker 4-13 via mXylylene)
7 | 10 to 79.4 | CC(C)C[C@@H]1NC(=O)[C@H](Cc2c[nH]c3ccccc23)NC(=O)[C@H](CCC(=O)NCc2ccc(S(C)(=O)=O)cc2)NC(=O)[C@H]2CCCN2C(=O)[C@H](CCC(=O)O)NC(=O)[C@@H](NC(=O)[C@H](Cc2ccc(O)cc2)NC(=O)[C@@H](NC(=O)CN2CCC(NC(=O)CN3CCN(CC(=O)O)CCN(CC(=O)O)CCN(CC(=O)O)CC3)CC2)C(C)C)CSCc2cccc(c2)CSC[C@@H](C(N)=O)NC(=O)[C@H](CO)NC(=O)[C@H](Cc2c[nH]c3ccccc23)NC(=O)[C@H]([C@@H](C)O)NC1=O [3BP-4333] ({DOTA}-[X2]VYCE[dP]E(X58)WLTWSC-NH2; linker 4-13 via mXylylene)

Same assay, conditions: FACS competition on HT-29 cells, Tracer ID 3BP-2776 (10 nM, biotin-labeled), 4° C., 1 hour; read-out: pIC50 category (activity) (converted)

Row | Structure (SMILES) | IC50 [nM]
8 | CC(=O)N[C@H](C(=O)N[C@@H](Cc1ccc(O)cc1)C(=O)N[C@H]1CSCc2cccc(c2)CSC[C@@H](C(N)=O)NC(=O)[C@H](CCC(N)=O)NC(=O)[C@H](Cc2c[nH]c3ccccc23)NC(=O)[C@H]([C@@H](C)O)NC(=O)[C@H](CC(C)C)NC(=O)[C@H](Cc2c[nH]c3ccccc23)NC(=O)[C@H](CC(=O)O)NC(=O)[C@@H](C)NC(=O)[C@H](CCC(=O)O)NC1=O)C(C)C [3BP-3046] (Ac-VYCE[dA]DWLTWQC-NH2; linker 3-12 via mXylylene) | < 10
9 | CC(=O)N[C@H](C(=O)N[C@@H](Cc1ccc(O)cc1)C(=O)N[C@H]1CSCc2cccc(c2)CSC[C@@H](C(N)=O)NC(=O)[C@H](CCC(N)=O)NC(=O)[C@H](Cc2c[nH]c3ccccc23)NC(=O)[C@H]([C@@H](C)O)NC(=O)[C@H](CC(C)C)NC(=O)[C@H](Cc2c[nH]c3ccccc23)NC(=O)C(C)(C)NC(=O)CNC(=O)[C@H](CCC(=O)O)NC1=O)C(C)C [3BP-3061] (Ac-VYCEG[Aib]WLTWQC-NH2; linker 3-12 via mXylylene) | 100 to 794
10 | CC(=O)N[C@H](C(=O)N[C@@H](Cc1ccc(O)cc1)C(=O)N[C@H]1CSCc2cccc(c2)CSC[C@@H](C(N)=O)NC(=O)[C@H](CCC(N)=O)NC(=O)[C@H](Cc2c[nH]c3ccccc23)NC(=O)[C@H]([C@@H](C)O)NC(=O)[C@H](CC(C)C)NC(=O)[C@H](Cc2cccc3ccccc23)NC(=O)[C@H](CC(=O)O)NC(=O)CN(C)C(=O)[C@H](CCC(=O)O)NC1=O)C(C)C [3BP-3314] (Ac-VYCE[Sar]D[1Nal]LTWQC-NH2; linker 3-12 via mXylylene) | < 10
11 | CC(C)CC(=O)N[C@@H](CC(=O)O)C(=O)N[C@H]1CSCc2cccc(c2)CSC[C@@H](C(N)=O)NC(=O)[C@H](CCC(=O)NCCCNC(=O)COCCOCCNC(=O)CN2CCN(CC(=O)O)CCN(CC(=O)O)CCN(CC(=O)O)CC2)NC(=O)[C@H](Cc2c[nH]c3ccccc23)NC(=O)[C@H]([C@@H](C)O)NC(=O)[C@H](CC(C)C)NC(=O)[C@H](Cc2c[nH]c3ccccc23)NC(=O)[C@H](CC(=O)O)NC(=O)[C@H]2CCCN2C(=O)[C@H](CCC(=O)O)NC1=O [3BP-3871] (Isovaleryl-DCE[dP]DWLTWE(NH(CH2)3NH(O2Oc(DOTA)))C-NH2; linker 2-11 via mXylylene) | 10 to 79.4

Now from value to molecule:

Row | IC50 [nM] | Structure (SMILES)
12 | 10 to 79.4 | CC(=O)N[C@H](C(=O)N[C@@H](Cc1ccc(O)cc1)C(=O)N[C@H]1CSCc2cccc(c2)CSC[C@@H](C(N)=O)NC(=O)[C@H](CCC(N)=O)NC(=O)[C@H](Cc2c[nH]c3ccccc23)NC(=O)[C@H]([C@@H](C)O)NC(=O)[C@H](C(C)(C)C)NC(=O)[C@H](Cc2c[nH]c3ccccc23)NC(=O)[C@H](CC(=O)O)NC(=O)CNC(=O)[C@H](CCC(=O)O)NC1=O)C(C)C [3BP-3066] (Ac-VYCEGDW[Tle]TWQC-NH2; linker 3-12 via mXylylene)
13 | < 10 | CC(=O)N[C@H](C(=O)N[C@@H](Cc1ccc(O)cc1)C(=O)N[C@H]1CSCc2cccc(c2)CSC(C)(C)[C@@H](C(N)=O)NC(=O)[C@H](CCC(N)=O)NC(=O)[C@H](Cc2c[nH]c3ccccc23)NC(=O)[C@H]([C@@H](C)O)NC(=O)[C@H](CC(C)C)NC(=O)[C@H](Cc2c[nH]c3ccccc23)NC(=O)[C@H](CC(=O)O)NC(=O)CNC(=O)[C@H](CCC(=O)O)NC1=O)C(C)C [3BP-3064] (Ac-VYCEGDWLTWQ[Pen]-NH2; linker 3-12 via mXylylene)
14 | < 10 | CC(=O)N[C@@H](Cc1ccc(O)cc1)C(=O)N[C@H]1CSCc2cccc(c2)CSC[C@@H](C(N)=O)NC(=O)[C@H](CO)NC(=O)[C@H](Cc2c[nH]c3ccccc23)NC(=O)[C@H]([C@@H](C)O)NC(=O)[C@H](CC(C)C)NC(=O)[C@H](Cc2c[nH]c3ccccc23)NC(=O)[C@H](CC(=O)O)NC(=O)[C@H]2CCCN2C(=O)[C@H](CCC(=O)O)NC1=O [3BP-3729] (Ac-YCE[dP]DWLTWSC-NH2; linker 2-11 via mXylylene)
15 | < 10 | CC(C)C[C@@H]1NC(=O)[C@H](Cc2c[nH]c3ccccc23)NC(=O)[C@H](CC(=O)O)NC(=O)[C@H]2CCCN2C(=O)[C@H](CCC(=O)O)NC(=O)[C@@H](NC(=O)[C@H](Cc2ccc(O)cc2)NC(=O)[C@@H](NC(=O)c2cccc(CNC(=O)CN3CCN(CC(=O)O)CCN(CC(=O)O)CCN(CC(=O)O)CC3)c2)C(C)C)CSCc2cccc(c2)CSC[C@@H](C(N)=O)NC(=O)[C@H](C)NC(=O)[C@H](Cc2c[nH]c3ccccc23)NC(=O)[C@H]([C@@H](C)O)NC1=O [3BP-3429] ({DOTA-3Amb}-VYCE[dP]DWLTWAC-NH2; linker 3-12 via mXylylene)
16 | 100 to 794 | CC(=O)N[C@H](C(=O)N[C@@H](Cc1ccc(O)cc1)C(=O)N[C@H]1CSCc2cccc(c2)CSC[C@@H](C(N)=O)NC(=O)[C@H](CCC(N)=O)NC(=O)[C@H](Cc2csc3ccccc23)NC(=O)[C@H]([C@@H](C)O)NC(=O)[C@H](CC(C)C)NC(=O)[C@H](Cc2c[nH]c3ccccc23)NC(=O)[C@H](CC(=O)O)NC(=O)CN(C)C(=O)[C@H](CCC(=O)O)NC1=O)C(C)C [3BP-3315] (Ac-VYCE[Sar]DWLT[Bta]QC-NH2; linker 3-12 via mXylylene)
